Measured values published in patent US20140275094A1, “METHOD FOR TREATING PULMONARY ARTERIAL HYPERTENSION IN A PATIENT NOT HAVING IDIOPATHIC PULMONARY FIBROSIS” (GILEAD SCIENCES, INC., priority 2012, published 2014).

Experiments:
human hepatocytes = details: cited from earlier work
OATP1B3 = target: T1, OATP1B3 (Homo sapiens, UniProt Q9NPD5); test: Inhibition of OATP1B3, transfected CHO cells; type: cell-based; details: OAT1B3
T1 construct: expressed in transfected cells; host or cells: CHO
T1 sequence (Q9NPD5 1-702): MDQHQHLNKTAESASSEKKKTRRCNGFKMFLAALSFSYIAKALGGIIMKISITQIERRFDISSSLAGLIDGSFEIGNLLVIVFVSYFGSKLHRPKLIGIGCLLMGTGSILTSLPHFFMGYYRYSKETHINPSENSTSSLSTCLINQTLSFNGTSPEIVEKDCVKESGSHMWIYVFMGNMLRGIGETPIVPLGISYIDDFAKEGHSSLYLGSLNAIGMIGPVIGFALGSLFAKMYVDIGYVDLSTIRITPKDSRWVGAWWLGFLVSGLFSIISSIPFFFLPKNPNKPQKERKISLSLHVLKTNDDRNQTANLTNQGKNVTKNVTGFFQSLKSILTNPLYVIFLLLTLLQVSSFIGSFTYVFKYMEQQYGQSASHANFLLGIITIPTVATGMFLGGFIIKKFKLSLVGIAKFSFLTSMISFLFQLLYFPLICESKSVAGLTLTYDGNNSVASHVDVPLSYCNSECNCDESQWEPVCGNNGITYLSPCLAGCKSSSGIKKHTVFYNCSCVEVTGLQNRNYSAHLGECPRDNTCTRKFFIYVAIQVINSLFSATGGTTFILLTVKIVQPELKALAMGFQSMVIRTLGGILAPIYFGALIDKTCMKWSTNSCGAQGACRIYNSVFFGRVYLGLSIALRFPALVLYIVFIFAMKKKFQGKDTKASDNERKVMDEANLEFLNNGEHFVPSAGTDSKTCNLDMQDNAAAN
Procedure: (§1) Inhibition constants (IC50) were measured for human bile salt export pump (BSEP), sodium taurocholate cotransporting polypeptide (NTCP), multidrug resistance protein 2 (MRP2), P-glycoprotein (Pgp), breast cancer resistance protein (BCRP), organic anion-transporting polypeptide 1B1 (OATP1B1), and OATP1B3 in transfected cell-lines. Known inhibitors were used as positive controls.

[1] = target: T2, sodium taurocholate cotransporting polypeptide (NTCP) (Homo sapiens, UniProt Q14973); test: Inhibition of hepatic transporter NTCP, transfected CHO cells; type: cell-based
T2 construct: expressed in transfected cells; host or cells: Chinese Hamster Ovary (CHO)
T2 sequence (Q14973 1-349): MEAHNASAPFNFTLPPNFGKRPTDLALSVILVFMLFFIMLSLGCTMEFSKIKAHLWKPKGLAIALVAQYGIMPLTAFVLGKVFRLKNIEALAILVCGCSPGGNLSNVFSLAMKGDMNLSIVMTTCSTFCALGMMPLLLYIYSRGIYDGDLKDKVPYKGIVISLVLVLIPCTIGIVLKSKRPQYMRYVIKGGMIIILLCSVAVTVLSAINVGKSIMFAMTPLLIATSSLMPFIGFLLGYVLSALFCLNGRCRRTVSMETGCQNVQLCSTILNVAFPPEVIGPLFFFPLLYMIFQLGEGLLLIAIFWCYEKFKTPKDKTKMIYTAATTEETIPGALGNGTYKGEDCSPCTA
Procedure: as §1

[2] = target: T3, human bile salt export pump (BSEP) (Homo sapiens, UniProt O95342); test: Inhibition of hepatic transporter BSEP, Sf9 cell membrane vesicles; type: biochemical
T3 construct: expressed in transfected cells; host or cells: Sf9 cell membrane vesicles
T3 sequence (O95342 whole entry): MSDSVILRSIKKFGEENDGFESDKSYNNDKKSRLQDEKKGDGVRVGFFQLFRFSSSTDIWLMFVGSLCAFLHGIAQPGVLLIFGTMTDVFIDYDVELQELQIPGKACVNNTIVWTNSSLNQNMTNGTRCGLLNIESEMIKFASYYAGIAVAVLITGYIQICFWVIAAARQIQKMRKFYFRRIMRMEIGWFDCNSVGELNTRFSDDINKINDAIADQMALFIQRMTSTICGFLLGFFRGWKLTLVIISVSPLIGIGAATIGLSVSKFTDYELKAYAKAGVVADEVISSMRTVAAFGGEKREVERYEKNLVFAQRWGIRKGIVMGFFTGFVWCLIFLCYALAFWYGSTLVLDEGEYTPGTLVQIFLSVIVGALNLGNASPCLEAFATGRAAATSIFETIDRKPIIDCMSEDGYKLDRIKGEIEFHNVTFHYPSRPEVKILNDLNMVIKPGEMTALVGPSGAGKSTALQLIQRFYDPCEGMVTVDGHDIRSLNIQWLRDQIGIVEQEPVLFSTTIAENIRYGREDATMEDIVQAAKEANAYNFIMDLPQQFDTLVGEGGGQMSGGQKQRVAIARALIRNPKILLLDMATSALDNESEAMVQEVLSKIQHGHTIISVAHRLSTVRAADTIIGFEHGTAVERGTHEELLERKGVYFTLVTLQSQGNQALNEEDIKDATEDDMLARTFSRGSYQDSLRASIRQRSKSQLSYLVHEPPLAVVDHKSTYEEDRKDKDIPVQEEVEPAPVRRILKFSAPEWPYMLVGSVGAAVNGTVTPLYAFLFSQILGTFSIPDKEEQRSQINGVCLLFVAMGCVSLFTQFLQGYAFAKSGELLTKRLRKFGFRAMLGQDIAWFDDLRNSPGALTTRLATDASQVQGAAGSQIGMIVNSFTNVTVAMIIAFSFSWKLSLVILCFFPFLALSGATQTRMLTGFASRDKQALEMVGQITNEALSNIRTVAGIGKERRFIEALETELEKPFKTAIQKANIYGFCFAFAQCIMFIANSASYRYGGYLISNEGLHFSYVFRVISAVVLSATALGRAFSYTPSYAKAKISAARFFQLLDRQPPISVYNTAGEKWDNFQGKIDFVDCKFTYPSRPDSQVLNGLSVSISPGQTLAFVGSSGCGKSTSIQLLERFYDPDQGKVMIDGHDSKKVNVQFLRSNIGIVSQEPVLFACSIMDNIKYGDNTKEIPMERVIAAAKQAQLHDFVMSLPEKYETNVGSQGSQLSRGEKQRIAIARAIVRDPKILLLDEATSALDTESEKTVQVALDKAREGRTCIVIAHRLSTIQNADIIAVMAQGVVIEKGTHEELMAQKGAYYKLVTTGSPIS
Procedure: as §1

[3] = target: T4, breast cancer resistance protein (BCRP) (Homo sapiens, UniProt Q9UNQ0); test: Inhibition of BCRP, transfected MDCKII cells; type: cell-based
T4 construct: expressed in transfected cells; host or cells: MDCKII
T4 sequence (Q9UNQ0 1-655): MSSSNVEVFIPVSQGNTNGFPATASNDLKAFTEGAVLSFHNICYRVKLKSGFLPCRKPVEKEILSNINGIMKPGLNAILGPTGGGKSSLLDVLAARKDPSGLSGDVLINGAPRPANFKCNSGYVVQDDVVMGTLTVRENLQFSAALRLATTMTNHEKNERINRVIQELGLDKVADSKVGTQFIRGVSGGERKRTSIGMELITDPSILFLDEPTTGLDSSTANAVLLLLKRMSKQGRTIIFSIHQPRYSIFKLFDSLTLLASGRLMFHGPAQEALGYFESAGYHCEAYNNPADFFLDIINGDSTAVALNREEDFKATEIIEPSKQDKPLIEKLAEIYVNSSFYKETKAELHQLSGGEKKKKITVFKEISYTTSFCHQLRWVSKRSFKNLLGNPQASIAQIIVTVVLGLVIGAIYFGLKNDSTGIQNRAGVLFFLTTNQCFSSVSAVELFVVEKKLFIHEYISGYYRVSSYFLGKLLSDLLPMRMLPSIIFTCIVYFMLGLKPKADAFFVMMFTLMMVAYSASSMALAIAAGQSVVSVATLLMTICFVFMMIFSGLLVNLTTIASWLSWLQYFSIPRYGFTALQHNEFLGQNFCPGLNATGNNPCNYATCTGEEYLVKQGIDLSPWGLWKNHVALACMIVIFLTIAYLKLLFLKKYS
Procedure: as §1

P-glycoprotein (Pgp) = target: T5, P-glycoprotein (Pgp) (Homo sapiens, UniProt P08183); test: Inhibition of Pgp, transfected MDCKII cells; type: cell-based
T5 construct: expressed in transfected cells; host or cells: Madin-Darby canine kidney strain II (MDCKII)
T5 sequence (P08183 whole entry): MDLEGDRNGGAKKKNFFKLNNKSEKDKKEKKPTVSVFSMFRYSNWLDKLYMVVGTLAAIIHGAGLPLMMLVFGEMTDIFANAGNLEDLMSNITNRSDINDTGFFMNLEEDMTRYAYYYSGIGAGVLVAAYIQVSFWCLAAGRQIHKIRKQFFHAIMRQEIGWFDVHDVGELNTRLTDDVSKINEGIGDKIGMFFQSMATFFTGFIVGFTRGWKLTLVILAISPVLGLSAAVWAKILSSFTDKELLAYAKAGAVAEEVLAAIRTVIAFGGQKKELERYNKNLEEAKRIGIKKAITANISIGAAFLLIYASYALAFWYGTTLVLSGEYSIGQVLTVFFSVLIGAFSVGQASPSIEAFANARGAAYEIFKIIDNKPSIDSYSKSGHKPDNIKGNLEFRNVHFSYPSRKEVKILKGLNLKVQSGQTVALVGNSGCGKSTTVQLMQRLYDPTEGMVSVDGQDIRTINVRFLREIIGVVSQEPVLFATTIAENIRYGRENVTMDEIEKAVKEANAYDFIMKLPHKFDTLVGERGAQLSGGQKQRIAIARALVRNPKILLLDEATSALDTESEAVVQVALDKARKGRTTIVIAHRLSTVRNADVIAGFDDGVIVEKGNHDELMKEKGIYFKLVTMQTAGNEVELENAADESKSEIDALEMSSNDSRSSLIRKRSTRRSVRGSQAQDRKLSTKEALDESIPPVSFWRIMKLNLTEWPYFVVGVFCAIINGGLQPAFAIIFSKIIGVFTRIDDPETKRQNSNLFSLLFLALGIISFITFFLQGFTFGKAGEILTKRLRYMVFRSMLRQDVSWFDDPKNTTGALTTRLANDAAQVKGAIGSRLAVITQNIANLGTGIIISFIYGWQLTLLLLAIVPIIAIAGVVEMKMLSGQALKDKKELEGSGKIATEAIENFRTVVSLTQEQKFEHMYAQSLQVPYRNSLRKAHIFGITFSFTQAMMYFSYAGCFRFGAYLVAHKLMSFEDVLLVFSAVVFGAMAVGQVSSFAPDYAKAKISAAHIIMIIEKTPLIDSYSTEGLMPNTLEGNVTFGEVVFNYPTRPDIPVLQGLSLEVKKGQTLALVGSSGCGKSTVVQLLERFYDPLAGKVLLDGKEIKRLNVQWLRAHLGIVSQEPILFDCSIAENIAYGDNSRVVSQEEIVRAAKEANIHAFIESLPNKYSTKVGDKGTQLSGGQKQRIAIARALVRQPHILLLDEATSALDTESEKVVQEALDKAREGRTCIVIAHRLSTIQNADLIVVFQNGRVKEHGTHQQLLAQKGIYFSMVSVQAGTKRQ
Procedure: as §1

[4] = target: T6, organic anion-transporting polypeptide 1B1 (OATP1B1) (Homo sapiens, UniProt Q9Y6L6); test: Inhibition of OATP1B1, transfected CHO cells; type: cell-based
T6 construct: expressed in transfected cells; host or cells: CHO
T6 sequence (Q9Y6L6 1-691): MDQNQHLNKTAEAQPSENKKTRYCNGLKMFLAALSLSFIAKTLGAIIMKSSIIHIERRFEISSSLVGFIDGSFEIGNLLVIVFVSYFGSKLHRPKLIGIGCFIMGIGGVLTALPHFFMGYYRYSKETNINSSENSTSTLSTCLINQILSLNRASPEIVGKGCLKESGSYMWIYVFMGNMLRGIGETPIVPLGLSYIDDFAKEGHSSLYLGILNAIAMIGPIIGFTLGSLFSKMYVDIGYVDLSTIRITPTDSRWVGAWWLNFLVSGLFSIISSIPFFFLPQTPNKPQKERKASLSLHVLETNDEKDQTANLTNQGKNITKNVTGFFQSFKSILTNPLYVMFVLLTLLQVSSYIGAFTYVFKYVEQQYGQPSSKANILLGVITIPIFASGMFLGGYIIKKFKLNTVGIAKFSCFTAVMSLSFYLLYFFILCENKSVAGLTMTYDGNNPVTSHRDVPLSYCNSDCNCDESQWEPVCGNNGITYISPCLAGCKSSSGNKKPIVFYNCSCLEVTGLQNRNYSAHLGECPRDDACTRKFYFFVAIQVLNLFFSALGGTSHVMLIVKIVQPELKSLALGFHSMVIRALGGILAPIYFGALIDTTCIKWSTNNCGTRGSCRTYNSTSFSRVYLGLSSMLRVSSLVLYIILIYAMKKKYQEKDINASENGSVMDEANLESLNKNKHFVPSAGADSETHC
Procedure: as §1

IC50 (OATP1B3)	effect on NTCP [1]	IC50 ([1]; NTCP)	IC50 [3]	IC50 (P-glycoprotein (Pgp))	IC50 [4]	SMILES	effect on hepatobiliary transporter activity (human hepatocytes)	effect on BSEP [2]	IC50 ([2]; BSEP)
–	–	–	–	–	–	COc1cc(OC)nc(O[C@H](C(=O)O)C(OC)(c2ccccc2)c2ccccc2)n1 [darusentan]	less potent	–	–
2.1 ± 0.3 µM	inhibition was observed	8 µM	75 ± 37 µM	64 ± 15 µM	2 ± 0.3 µM	CCCNS(=O)(=O)Nc1ncnc(OCCOc2ncc(Br)cn2)c1-c1ccc(Br)cc1 [Macitentan, N-[5-(4-bromophenyl)-6-(2-(5-bromopyrimidin-2-yloxy)ethoxy)-pyrimidin-4-yl]-N′-propylaminosulfonamide]	–	inhibition was observed	12 µM
–	–	–	–	–	–	Cc1cc2c(cc1CC(=O)c1sccc1S(=O)(=O)Nc1onc(C)c1Cl)OCO2 [sitaxsentan]	decreased transporter activity to the greatest extent	–	–
